The text below walks through data of patent US20230399314A1, “CD73 INHIBITOR AND USE THEREOF” (WUHAN HUMANWELL INNOVATIVE DRUG RESEARCH AND DEVELOPMENT …, priority 2020, published 2023).

pEC50, pIC50: −log10 of the molar value.

A word on the half-life: it is the time in which the quantity being followed falls by half. The low end stands for fast loss, the high end for slow loss. One may read the Cmax as the peak of the concentration-time curve. For orientation: Tmax means the time at which the peak concentration occurs. For orientation: pIC50 means −log10 of the IC50, conventionally taken in molar units. Higher therefore signals a small IC50. As usually defined, the fraction unbound is free concentration divided by total concentration. A lower fraction unbound goes with little free substance. The pEC50 is the negative decadic logarithm of the EC50, by convention in mol/L. By clearance is commonly meant the volume of plasma or blood freed of the substance per unit of time. A low value points to inefficient removal.

A short description of series [1]: Pharmacokinetic test on mice. Format: in vivo, male ICR mice. The note with it: male, ICR, plasma, mouse; for AUC(0-t): read-out: AUC0-t; for Cmax: read-out: Cmax; for Tmax: read-out: Tmax. Here is the method: (§1) In a pharmacokinetic test on mice, male ICR mice of 20 g to 25 g were used and fasted overnight. 3 mice were selected for orally intragastric administration (10 mg/kg). Before administration, and 15 min, 30 min, 1 h, 2 h, 4 h, 8 h, and 24 h after administration, blood was sampled from each mouse. Another 3 mice were selected for intravenous injection administration (3 mg/kg), and before administration, and 15 min, 30 min, 1 h, 2 h, 4 h, 8 h, and 24 h after administration, blood was sampled from each mouse. The blood sample was centrifuged at 6,800 g and 2 to 8° C. for 6 min, and plasma was collected and stored at −80° C. The plasma of each time point was vortex-mixed for 1 min with an acetonitrile solution containing the internal standard with a volume 3-5 times that of the plasma of each time point, and centrifuged at 13,000 rpm and 4° C. for 10 min, a supernatant was collected and mixed with water with a volume 3 times that of the supernatant, and an appropriate amount of the mixed solution was used for LC-MS/MS analysis. The main pharmacokinetic parameters were analyzed by using a WinNonlin 7.0 non-compartmental model.

For series [2], the target named is CD73 bound to the surfaces of A375 cells (Homo sapiens (Human), UniProt P21589). Put plainly: Inhibitory activity to CD73 enzyme bound to the surfaces of human melanoma A375 cells. To be noted: AMP 200 μM, 16 h. Format: cell-based. The procedure: The compound was diluted with serum-free DMEM to form a stock solution (5×) of an appropriate concentration gradient, the compound solution was added to the cells in the above 96-well plate according to 20 μL/well, and the mixture was placed in an incubator and pre-incubated for 30 min.
CD73 bound to the surfaces of A375 cells, sequence (P21589 27-574): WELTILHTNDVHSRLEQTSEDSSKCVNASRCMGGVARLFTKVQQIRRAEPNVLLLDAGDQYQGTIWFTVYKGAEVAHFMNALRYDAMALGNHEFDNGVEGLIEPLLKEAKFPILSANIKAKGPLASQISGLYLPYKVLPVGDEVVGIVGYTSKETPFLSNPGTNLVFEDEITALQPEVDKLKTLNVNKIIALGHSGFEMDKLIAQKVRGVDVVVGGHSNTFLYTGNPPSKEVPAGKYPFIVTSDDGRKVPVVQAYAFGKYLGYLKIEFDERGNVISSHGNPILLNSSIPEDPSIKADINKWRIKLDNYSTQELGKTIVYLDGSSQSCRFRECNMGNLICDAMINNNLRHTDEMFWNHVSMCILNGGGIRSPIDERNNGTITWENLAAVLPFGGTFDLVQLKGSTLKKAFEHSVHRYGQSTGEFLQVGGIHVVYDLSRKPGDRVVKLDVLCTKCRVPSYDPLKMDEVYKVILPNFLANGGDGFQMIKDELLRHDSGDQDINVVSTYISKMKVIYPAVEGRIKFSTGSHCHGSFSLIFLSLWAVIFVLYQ
A375-bound CD73 inhibition rates of the compound at different concentrations were calculated according to the following formula, the concentration of the compound was taken as the X-axis, the inhibition rate was taken as the Y-axis, and an IC50 value of the compound in inhibiting A375-bound CD73 was calculated by using Prism software.

The nature of series [3]: Plasma protein binding by equilibrium dialysis, mouse plasma. The note with it: 37° C. Format: in vitro ADME. Here is the method:
(§2) Plasma protein binding rates of the compounds were detected by equilibrium dialysis (HTDialysis, HTD 96b). The compound was diluted with DMSO to form a 0.5 mM stock solution, and the stock solution was diluted 25 times with a 0.05 M sodium phosphate buffer to form a 20 μM working solution. Plasma was placed in a new 96-well plate according to 380 μL/well, then the working solution was added to and uniformly mixed with the plasma according to 20 μL/well, the final concentration of the compound was 1 μM, and each well contained 0.2% DMSO.
(§3) 100 μL of 0.05 M sodium phosphate buffer was added to a receiving side of each dialysis chamber (HTD 96b), and 100 μL of plasma containing the compound was added to a supply side. The dialysis apparatus was closed with a plastic lid, and incubated with shaking at 37° C. for 5 h.
(§4) After the incubation was completed, 25 μL of sample was collected respectively from the supply side and the receiving side of the dialysis chamber, and placed in a new 96-well plate, an equal volume of blank plasma was added to and uniformly mixed with each sample on the supply side, an equal volume of 0.05 M sodium phosphate buffer was added to and uniformly mixed with each sample on the receiving side. 200 μL of acetonitrile solution containing the internal standard was added to each well, the 96-well plate was vortex-shaken at 600 rpm for 10 min, and centrifuged at 5,594 g for 15 min (Thermo Multifuge×3R), 50 μL of supernatant was transferred to a new 96-well plate, and the sample was mixed with 50 μL of ultrapure water and subjected to LC-MS/MS analysis.
(§5) A plasma protein binding rate and a fraction unbound in plasma were calculated according to the following formulas:
(§6) % binding rate=100×([supply side concentration]5h−[receiving side concentration]5h)/[supply side concentration]5h; and
(§7) % fraction unbound in plasma=100−% binding rate.
Background: In equilibrium dialysis only unbound substance equilibrates across the membrane.

The next series has as its system Human CD4+ T cells. The series can be described thus: Relieving AMP-induced proliferation inhibition of human CD4+ T cells (CCK8). Format: cell-based. The note with it: Homo sapiens, 120 h, AMP 0.3 mM, day 5. Here is the method: On day 1 of the experiment, CD4^+ T cells (Allcells Shanghai, PB009-2F-C) were thawed, and inoculated into two replicate wells according to 3×10^4 cells/well and 50 μL/well. The compound was diluted with a complete medium to form a stock solution (4×) of an appropriate concentration gradient, the compound solution was added to the above cells according to 50 μL/well, and the mixture was pre-incubated at 37° C. for 30 min. […] Meanwhile, a positive reference group (Human CD4^+ T+IL-2+CD3/CD28 beads) and a negative reference group (Human CD4^+ T+IL-2+CD3/CD28 beads+AMP) were set. AMP (Sigma; A1752-5G) was diluted with a complete medium to form an AMP solution (4×), the AMP solution was added to the above cells according to 50 μL/well, the final concentration was 0.3 mM, and the mixture was incubated at 37° C. On day 3 of the experiment, the AMP solution was added to the above plate according to 20 μL/well, and the final concentration was 0.3 mM. On day 5, the proliferation of the cells was detected by using a CCK8 kit (DojinDO; CK04).
Inhibition rates of the compound at different concentrations in relieving AMP-induced proliferation inhibition of CD4^+ T cells were calculated according to the following formula, the concentration of the compound was taken as the X-axis, the inhibition rate was taken as the Y-axis, and an EC50 value of the compound in relieving the AMP-induced proliferation inhibition of CD4^+ T cells was calculated by using Prism software.

Series [4] is described as follows: Pharmacokinetic test on dogs. Format: in vivo, male Beagle dogs. To be noted: male, Beagle, plasma, dog; for Vd: read-out: Vz. Here is the method: as §1
In a pharmacokinetic test on dogs, male Beagle dogs of 8 to 10 kg were used and fasted overnight. 3 Beagle dogs were selected for orally intragastric administration (5 mg/kg). Another 3 Beagle dogs were selected for intravenous injection administration (1 mg/kg). Other operations were the same as the pharmacokinetic test on mice.

Series [5] in a line: Plasma protein binding by equilibrium dialysis, canine plasma. Format: in vitro ADME. The note with it: dog, 37° C. The procedure: as §2, §3, §4, §5, §6, §7
A further series deals with A375 melanoma. Put plainly: In vivo efficacy on A375 melanoma (PBMC + A375 cells in NCG mice). To be noted: compound 40 mg/kg + anti PD-1 10 mg/kg; for Mean ± SEM (tumor size): in mm³ (unit assumed). The procedure:
A375 cells in logarithmic growth phase were collected, cultured in Mitomycin C for 2 h, and washed three times with PBS. After 5 days of co-culture of PBMC and A375 cells, PBMC and freshly digested A375 cells were collected, 5×10^5 PBMC and 4×10^6 A375 cells were inoculated subcutaneously on the right side of NCG mice according to 0.2 mL/mouse (containing 50% Matrigel). After inoculation, the mice were randomly divided into a model group and an administration group according to body weight of the mice, tumor size and animal weight were measured and recorded before and during administration, and tumor sizes of the model group and the administration group were compared after treatment to determine the efficacy.

Series [6] can be described thus: Plasma protein binding by equilibrium dialysis, human plasma. The note with it: 37° C. Format: in vitro ADME. The procedure: as §2, §3, §4, §5, §6, §7
Where [7] appears, read: po, orally intragastric 10 mg/kg.
Setting [8] is: po, orally intragastric 5 mg/kg.

`O=c1[nH]cc(-c2cc([C@H]3C[C@@H]3CF)c(Cl)nn2)c(=O)[nH]1` [Compound 1, 5-(6-chloro-5-((1S,2S)-2-(fluoromethyl)cyclopropyl)pyridazin-3-yl)pyrimidine-2,4(1H,3H)-dione]: in series [1] (setting [7]), the half-life was 199 min, the AUC(0-t) amounted to 5720 ng·h/mL, the Cmax stood at 4300 ng/mL and the time of peak concentration (Tmax) stood at 25.2 min. In series [2], this compound showed a pIC50 of 7.51. Moreover, the unbound share (fraction unbound) at 5 h, 1 μM in series [3] is 0.474. Further, in the series with Human CD4+ T cells, the pEC50 was 7.14. Also, in series [4] (setting [8]), the AUC(0-t) came out at 16900 ng·h/mL, the peak concentration (Cmax) came to 5480 ng/mL, the time of peak concentration (Tmax) stood at 70.2 min and the half-life is 160 min. Also, in series [4] (intravenous injection 1 mg/kg), the AUC(0-t) was determined as 1460 ng·h/mL, the clearance is 12.2 mL/min/kg, the half-life is 56.4 min and the Vd worked out at 0.99 L/kg. Moreover, the unbound share (fraction unbound) at 5 h, 1 μM in series [5] was 0.245. In addition, in the series on A375 melanoma, the “% TGI” value turned out to be 63.68% and the “Mean ± SEM (tumor size)” value was found to be 713.7 ± 89.22. The free fraction (fraction unbound) at 5 h, 1 μM in series [6] worked out at 0.274.

For the compound `Cc1nnc(-c2c[nH]c(=O)[nH]c2=O)cc1[C@H]1C[C@@H]1C(C)C` [Reference compound 3, 5-(5-((1S,2R)-2-isopropylcyclopropyl)-6-methylpyridazin-3-yl)pyrimidine-2,4(1H,3H)-dione, reference compound], the half-life is 71.4 min in series [1] (setting [7]), 16.8 min in series [1] (intravenous injection 3 mg/kg), 55.8 min in series [4] (setting [8]) and 23.4 min in series [4] (intravenous injection 1 mg/kg). Moreover, the AUC(0-t) amounted to 1270 ng·h/mL in series [1] (setting [7]), 730 ng·h/mL in series [1] (intravenous injection 3 mg/kg), 1540 ng·h/mL in series [4] (setting [8]) and 512 ng·h/mL in series [4] (intravenous injection 1 mg/kg). Further, the values for the highest concentration (Cmax) in series [1] (setting [7]) and in series [4] (setting [8]) were 1270 ng/mL and 1200 ng/mL, respectively. Besides, the Tmax worked out at 19.8 min in series [1] (setting [7]) and 25.2 min in series [4] (setting [8]). Also, the clearance in series [1] (intravenous injection 3 mg/kg) is 70 mL/min/kg; in series [4] (intravenous injection 1 mg/kg), 36 mL/min/kg. Moreover, the Vd in series [1] (intravenous injection 3 mg/kg, read-out: Vz) stood at 1.67 L/kg; in series [4] (intravenous injection 1 mg/kg), 1.14 L/kg. In addition, the values for the fraction unbound at 5 h, 1 μM in series [3], in series [5] and in series [6] were 0.122, 0.126 and 0.103, respectively. This compound showed a negative-log EC50 (pEC50) with Human CD4+ T cells of 6.47. In the series with A375 melanoma, the “% TGI” value was 41.52%. Besides, in the series with A375 melanoma, the “Mean ± SEM (tumor size)” value is given as 1149 ± 167.8.
